Results on four compounds are retold here after ChEMBL document CHEMBL1201862, “PubChem BioAssay data set” (2004).

Among the test systems are MOLT-4; LOX IMVI; SF-268; CAKI-1; OVCAR-8; MDA-N; SK-MEL-28; RPMI-8226; SR; NCI/ADR-RES; 786-0; OVCAR-3; Hs-578T; M14; RXF 393; CCRF-CEM; UACC-62; MDA-MB-231; A498.
Holding throughout (assay): NCI-60 cell line screen, 48 h

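In this assay, cells in 96-well plates receive the compound at five concentrations for 48 hours. Endpoints are linearly interpolated between the surrounding concentrations. GI50 = concentration required for 50% inhibition of growth.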 Activity calls are given as the source filed them. No stated cut-off is given here; in the data, active = GI50 up to about 1.1 µM and inactive = higher.

`COc1cccc(-c2cc(O)c3cc(N4CCCC4)ccc3n2)c1`: the GI50 in the test on MOLT-4 is < 1 nM (active); in the test on LOX IMVI it was < 1 nM (active); with SF-268, < 1 nM (active); with CAKI-1 it was < 0.001 µM (active); with OVCAR-8, < 1 nM (active); with MDA-N, < 1 nM (active). Also, the GI50 is < 0.001 µM (active) in the test with SK-MEL-28; < 1 nM (active) with RPMI-8226; < 1 nM (active) in the test with SR; < 0.001 µM (active) in the test on NCI/ADR-RES; < 1 nM (active) in the test on 786-0; < 1 nM (active) in the test on OVCAR-3. In addition, the GI50 with Hs-578T was < 0.001 µM (active); in the test with M14 it was < 1 nM (active); in the test with RXF 393, < 1 nM (active); in the test with CCRF-CEM, < 1 nM (active); in the test on UACC-62 it was < 0.001 µM (active); in the test on MDA-MB-231, 0.00155 µM (active).
In the case of `O=C(c1ccc(-c2ccccc2)cc1)N(Cc1cccnc1)C(=S)N(Cc1cccnc1)C(=O)c1ccc(-c2ccccc2)cc1`, the GI50 was 198 nM (active) with MOLT-4; > 100000 nM (inactive) with LOX IMVI; > 100000 nM (inactive) with SF-268; 27.1 µM (inactive) with CAKI-1; > 100000 nM (inactive) in the test with OVCAR-8; > 100 µM (inactive) with A498. The GI50 is 43500 nM (inactive) in the test with MDA-N; > 100 µM (inactive) in the test with SK-MEL-28; 3560 nM (inactive) in the test on RPMI-8226; 241 nM (active) in the test with SR; > 100 µM (inactive) in the test on NCI/ADR-RES; > 100000 nM (inactive) in the test with 786-0. Further, the GI50 in the test with OVCAR-3 is > 100000 nM (inactive); in the test on Hs-578T, > 100 µM (inactive); in the test with M14 it was 81300 nM (inactive); with CCRF-CEM, > 100000 nM (inactive); with UACC-62 it was > 100 µM (inactive); in the test on MDA-MB-231, > 100 µM (inactive).
As to `C/C(=N\NC(=S)N/N=C(\C)c1ccccn1)c1ccccn1`, the GI50 is 1310 nM (inactive) in the test on MOLT-4; 859 nM (active) in the test on LOX IMVI; 817 nM (active) with SF-268; 1.41 µM (inactive) in the test with CAKI-1; 1050 nM (active) in the test with OVCAR-8; 6.03 µM (inactive) in the test on A498. Further, the GI50 in the test on MDA-N was 5400 nM (inactive); in the test with SK-MEL-28 it was 8.36 µM (inactive); with RPMI-8226, 2540 nM (inactive); in the test with SR, 2180 nM (inactive); in the test on NCI/ADR-RES, 0.381 µM (active); in the test on 786-0, 2070 nM (inactive). In addition, the GI50 with OVCAR-3 is 656 nM (active); with Hs-578T, 31.8 µM (inactive); in the test with M14, 1270 nM (inactive); with CCRF-CEM, 337 nM (active); in the test on UACC-62 it was 1.71 µM (inactive); in the test with MDA-MB-231, 21.5 µM (inactive).
On to `C1=C(CC2=C[P+](c3ccccc3)(c3ccccc3)C=C(c3ccccc3)O2)OC(c2ccccc2)=C[P+]1(c1ccccc1)c1ccccc1`, for which the GI50 in the test on MOLT-4 was 489 nM (active); with LOX IMVI, 431 nM (active); in the test with SF-268 it was 362 nM (active); with CAKI-1 it was 2.21 µM (inactive); in the test with OVCAR-8 it was 239 nM (active); with A498, 0.716 µM (active). The GI50 in the test with MDA-N was 337 nM (active); in the test with SK-MEL-28 it was 0.724 µM (active); in the test on RPMI-8226 it was 180 nM (active); with SR, 260 nM (active); with NCI/ADR-RES, 14.3 µM (inactive); in the test with 786-0 it was 684 nM (active). For the same compound, the GI50 with OVCAR-3 is 320 nM (active); in the test on Hs-578T it was 0.241 µM (active); in the test on M14, 573 nM (active); with CCRF-CEM it was 361 nM (active); with MDA-MB-231 it was 0.313 µM (active).
